Experimental data from patent US6924314B2, “Compounds for the treatment of metabolic disorders” (Wellstat Therapeutics Corporation, priority 2001, dated 2005).

Experiments:
db/db mice [1] = test: Antidiabetic effects in db/db mice, second experiment, 8 weeks of treatment; assay type: in vivo
Excerpt: (§1) Blood samples were obtained via the retro-orbital sinus for serum chemistry analysis, or via the tail vein for glucose measurement with a test strip and glucometer.
Groups consisted of 6-8 mice each.

db/db mice [2] = test: Antidiabetic effects in db/db mice, 2 weeks (Example I); assay type: in vivo, C57BL/Ksola mice; details: for Glucose / Glucose (% of Control): nonfasting; for Free Fatty Acids ± SEM / Triglycerides ± SEM: serum
Excerpt: (§2) db/db mice have a defect in leptin signaling, leading to hyperphagia, obesity and diabetes. Moreover, unlike ob/ob mice on a C57BL/6J background, db/db mice on a C57BL/KS background undergo failure of their insulin-producing pancreatic islet β cells, resulting in progression from hyperinsulinemia (associated with peripheral insulin resistance) to hypoinsulinemic diabetes.
(§3) A minimum of 7 days was allowed for adaptation after arrival.
Treatment cohorts were given daily oral doses of (1% hydroxypropylmethylcellulose), Compounds BI, BO, BP, BQ or BR for 2 weeks. At the end of the treatment period 100 μl of venous blood was withdrawn in a heparinized capillary tube from the retro-orbital sinus of db/db mice for serum chemistry analysis.

db/db mice [3] = test: Antidiabetic effects in db/db mice, 2 weeks (Example J); assay type: in vivo, C57BL/Ksola mice
Excerpt: as §2, with “islet” for “islet β”
as §3
Treatment cohorts were given daily oral doses of Vehicle (1% hydroxypropylmethylcellulose), Compounds BI, BS, BT, BU, BV or Fenofibrate for 2 weeks. At the end of the treatment period 100 μl of venous blood was withdrawn in a heparinized capillary tube from the retro-orbital sinus of db/db mice for serum chemistry analysis.

[4] = tested on: Zucker Diabetic Fatty (ZDF) rats; test: Attenuation of cataractogenesis in Zucker Diabetic Fatty (ZDF) rats; assay type: in vivo; details: 100 mg/kg daily oral, 10 weeks
Excerpt: Cataracts are one of the leading causes of progressive vision decline and blindness associated with ageing and diabetes, and the Zucker diabetic fatty (ZDF) model has many similarities with human cataractogenesis, including biochemical changes and oxidative stress in the lens. These rats, however, undergo cataractogenesis typically between 14-16 weeks of age.
Male ZDF rats and their aged-match Zucker lean (ZL) counterparts (fa/+ or +/+) were obtained from Genetic Models, Inc. (Indianapolis, Ind.) aged 12 weeks and acclimatized for 1 week prior to study. […] Treatment cohorts were given a daily oral dose of vehicle and 100 mg/kg of BI or BH for 10 weeks. […] At the end of the treatment period 100 μl of venous blood was collected (usually 10:00 A.M.) in a heparinized tube from the tail vein for serum chemistry analysis (Anilytics, Inc., Gaithersburg, Md.). […] Plasma insulin was measured by an electrochemiluminescent immunoassay, ECL (Origen Analyzer, Igen, Inc., Gaithersburg, Md.). The animals were sacrificed and tissues and/or organs (lens and liver) were extirpated, weighed (wet weight) and processed for biochemical analyses. Malondialdehyde (MDA), a major product of lipid peroxidation was assayed in lenses according to Ohkawa et al (1979), Analytical Biochem 95, 351-358).

[5] = tested on: high fat-fed C57Bl/6J mice; test: Circulating triglycerides, free fatty acids, insulin and leptin in high fat-fed C57Bl/6J mice; assay type: in vivo; details: for Free Fatty Acids / Triglycerides: after 2 weeks of drug treatments
Excerpt: The high fat-fed mouse is a model for the hypertriglyceridemia and high circulating fatty acid levels, and the insulin and leptin resistance that are found in people at risk for and with obesity, diabetes, cardiovascular disease and other disorders. Male C57Bl/6J mice, approximately 8 weeks of age, were randomly assigned into groups of 6 animals. […] Mice were fed a high-fat diet (diet number D12451, containing 45% of calories as fat (Research Diets, New Brunswick, N.J.)) for 6 weeks. […]

[6] = tested on: mice with lethal insulin-dependent diabetes; test: Survival of mice with lethal insulin-dependent diabetes (single dose streptozotocin); assay type: in vivo, Balb/C mice; details: 30 mg/kg/day oral gavage
Protocol: Female Balb/C mice (14 weeks old) were treated with a single dose of streptozotocin (175 mg/kg i.p.) to induce severe insulin-dependent diabetes. Seven days later, mice were divided into three treatment groups: Compound AH, pioglitazone, and vehicle. Mice were treated daily via oral gavage, and survival was monitored over time.

ob/ob mice = test: Hyperglycemia, hyperlipidemia, fatty liver disease and weight gain in ob/ob obese diabetic mice, daily oral dosing; assay type: in vivo, C57BL/6 mice; details: for Free Fatty Acids ± SEM / Glucose ± SEM / Triglycerides ± SEM / ALT (U/L) ± SEM / AST (U/L) ± SEM / SDH (U/L) ± SEM: 4 weeks; for Mean body weight gain (grams): four week treatment period; for ALT (U/L) ± SEM / AST (U/L) ± SEM / SDH (U/L) ± SEM: serum
Excerpt: Ob/ob mice have a defect in the gene for leptin, a protein involved in appetite regulation and energy metabolism, and are hyperphagic, obese, and insulin resistant. They develop hyperglycemia and fatty liver.

db/db mice [7] = test: Antidiabetic effects in db/db mice, four weeks of daily oral dosing; assay type: in vivo; details: 100 mg/kg daily oral, four weeks
Excerpt: Db/db mice have a defect in leptin signaling, leading to hyperphagia, obesity and diabetes. Moreover, unlike ob/ob mice which have relatively robust islets, their insulin-producing pancreatic islet cells undergo failure during chronic hyperglycemia, so that they transition from hyperinsulinemia (associated with peripheral insulin resistance) to hypoinsulinemic diabetes.
as §1, with “Male db/db mice were given daily oral treatments with vehicle (0.75% hydroxypropylmethylcellulose) or antidiabetic compounds as indicated below. Blood” for “Blood”
The dose of pioglitazone used in this experiment was reported in the literature to be a maximally-effective dose for treatment of db/db mice (Shimaya et al. (2000), Metabolism 49:411-7).

[8] = 150 mg/kg, 8 weeks of treatment
[9] = nonfasting, 100 mg/kg daily oral
[10] = serum, daily oral, dose per Table 12: 100 mg/kg

Cc1cccc(C)c1COc1cccc(C(=O)CCC(=O)O)c1 [Compound BI, 4-(3-(2,6-Dimethylbenzyloxy)phenyl)-4-oxobutyric acid]
Glucose (db/db mice [1]; [8]): 254 ± 30 mg/dL | Triglycerides (db/db mice [1]; [8]): 99 ± 8 mg/dL | blood glucose and triglycerides compared to vehicle-treated controls (db/db mice [1]; after 8 weeks of treatment): significantly lower | Glucose (db/db mice [2]; 100 mg/kg daily oral): 423 ± 53 mg/dL | Glucose (% of Control) (db/db mice [2]; 100 mg/kg daily oral): 67 ± 8 % of Control | Glucose (db/db mice [2]; 150 mg/kg daily oral): 279 ± 35 mg/dL | Glucose (% of Control) (db/db mice [2]; 150 mg/kg daily oral): 44 ± 6 % of Control | Free Fatty Acids ± SEM (db/db mice [2]; 100 mg/kg daily oral): 2999.9 ± 98.7 µM | Triglycerides ± SEM (db/db mice [2]; 100 mg/kg daily oral): 134.0 ± 13.1 mg/dL | Free Fatty Acids ± SEM (db/db mice [2]; 150 mg/kg daily oral): 2234.0 ± 162.6 µM | Triglycerides ± SEM (db/db mice [2]; 150 mg/kg daily oral): 103.6 ± 8.3 mg/dL | Glucose (db/db mice [3]; [9]): 347.0 ± 43.1 mg/dL | Glucose (% of Control) (db/db mice [3]; [9]): 50 ± 6 % of Control | Free Fatty Acids ± SEM (db/db mice [3]; [10]): 1997.2 ± 196.4 µM | Triglycerides ± SEM (db/db mice [3]; [10]): 77.8 ± 5.3 mg/dL | % Protection Left Eye [4]: 50% | % Protection Right Eye [4]: 83% | Cataract Formation Left Eye [4]: 3/6 | Cataract Formation Right Eye [4]: 1/6 | Lenticular MDA ([4]; means ± SEM): 0.8 ± 0.1 nmol/g lens | Size (mm) Left Lens ([4]; means ± SEM): 3.4 ± 0.2 mm | Size (mm) Right Lens ([4]; means ± SEM): 3.8 ± 0.1 mm | Weight (mg) Left Lens ([4]; means ± SEM): 38.1 ± 7.3 mg | Weight (mg) Right Lens ([4]; means ± SEM): 54.9 ± 1.2 mg | Free Fatty Acids ([5]; 10 mg/kg oral gavage): 1227 ± 193.7 µmol/L | Triglycerides ([5]; 10 mg/kg oral gavage): 68.8 ± 5.7 mg/dL | Free Fatty Acids ([5]; 30 mg/kg oral gavage): 1292 ± 231.4 µmol/L | Triglycerides ([5]; 30 mg/kg oral gavage): 66.5 ± 14.7 mg/dL | Free Fatty Acids ([5]; 100 mg/kg oral gavage): 992.8 ± 172.1 µmol/L | Triglycerides ([5]; 100 mg/kg oral gavage): 37.4 ± 8.3 mg/dL | serum triglycerides and free fatty acids ([5]; oral gavage): effective at lowering | insulin serum levels ([5]; oral gavage, after 4 weeks of drug treatments (FIG. 1)): effective at lowering | leptin serum levels ([5]; oral gavage, after 4 weeks of drug treatments (FIG. 2)): effective at lowering

CCc1ccc(CCOc2ccc(CC3SC(=O)NC3=O)cc2)nc1 (stereo not drawn) [Pioglitazone, pioglitazone, reference compound]
body weight lost by survivors at 12 weeks [6]: 15-20% | Survivors (Survival at 12 weeks) ([6]; STZ 175 mg/kg i.p. Balb/C mice): 2/5 | Free Fatty Acids ± SEM (ob/ob mice; 30 mg/kg/day oral): 2606 ± 139.2 µmol/L | Glucose ± SEM (ob/ob mice; 30 mg/kg/day oral): 188.2 ± 21.4 mg/dL | Triglycerides ± SEM (ob/ob mice; 30 mg/kg/day oral): 111.2 ± 7.5 mg/dL | Mean body weight gain (grams) (ob/ob mice; 30 mg/kg/day): +10.0 grams | Free Fatty Acids ± SEM (ob/ob mice; 100 mg/kg/day oral): 1983.4 ± 66.1 µmol/L | Glucose ± SEM (ob/ob mice; 100 mg/kg/day oral): 174.6 ± 11.5 mg/dL | Triglycerides ± SEM (ob/ob mice; 100 mg/kg/day oral): 95.2 ± 4.8 mg/dL | Mean body weight gain (grams) (ob/ob mice; 100 mg/kg/day): +13.6 grams | ALT (U/L) ± SEM (ob/ob mice; 30 mg/kg/day oral): 713.6 ± 80.6 U/L | AST (U/L) ± SEM (ob/ob mice; 30 mg/kg/day oral): 1024 ± 88.7 U/L | SDH (U/L) ± SEM (ob/ob mice; 30 mg/kg/day oral): 782.0 ± 70.6 U/L | ALT (U/L) ± SEM (ob/ob mice; 100 mg/kg/day oral): 646.0 ± 56.1 U/L | AST (U/L) ± SEM (ob/ob mice; 100 mg/kg/day oral): 901.0 ± 49.3 U/L | SDH (U/L) ± SEM (ob/ob mice; 100 mg/kg/day oral): 603.0 ± 27.3 U/L | Glucose (db/db mice [7]): 558 ± 28 mg/dL | Glucose (% of Control) (db/db mice [7]): 99 ± 5 % of Control
